Among the data in patent publication EP2431387A1, “A raft deficient yeast expression system for the production of recombinant membrane proteins” (Centre National de la Recherche Scientifique (C.N.R.S), priority 2010, dated 2012) are Bmax values, retold here.

Assay [1] concerns the target T1, DRD2 (Homo sapiens, UniProt P14416). As to the kind of experiment: Saturation radioligand binding assay on CHAPS/CHS solubilized receptors. The following applies: DRD2 solubilized (CHAPS/CHS) from membranes of erg6 cells.
Description: (§1) For saturation binding assays, increasing concentrations of radioactive ligands ranging from 1 to 30 nM were added to 10 µg of proteins diluted in binding buffer (30 mM HEPES, pH 7.7, 0.15 M NaCl and 0.1% BSA). […] Non-specific binding was determined by the addition of 10 µM « cold » ligands using spiperone, prazozine, yohimbine and melatonin for DRD2, ADRA1, ADR2B and MTR1A, respectively. After 1-h incubation at RT, the reaction was terminated by rapid filtration of the samples through GF/B filters presoaked in 1 % polyethylenimine. The filters were washed 3 times with ice-cold buffer (Tris-HCI 50 mM, pH 7.4), and the radioactivity was measured by liquid-scintillation counting. The equilibrium dissociation constant, KD and the maximal number of binding sites, Bmax for radioligands were determined. The data were expressed as the mean ± standard error (SE) for at least three independant experiments performed in triplicate. Data were fitted through non-linear regression analysis with the one-site saturation binding model using the Prism 4 program of GraphPad.
(§2) Saturation binding experiments were performed on CHAPS/CHS solubilized receptors the same way than described in Example 4 in order to test receptor activity and stability (FIG.5).
Assay [2] addresses T1, DRD2. As to the kind of experiment: Saturation radioligand binding assay on crude membranes of P. pastoris cells. The following applies: DRD2 expressed in membranes of erg6 cells.
Description: as §1
For assay [3], the target named is T2, ADRA1A (Homo sapiens, UniProt P35348).
T2 sequence (P35348 whole entry): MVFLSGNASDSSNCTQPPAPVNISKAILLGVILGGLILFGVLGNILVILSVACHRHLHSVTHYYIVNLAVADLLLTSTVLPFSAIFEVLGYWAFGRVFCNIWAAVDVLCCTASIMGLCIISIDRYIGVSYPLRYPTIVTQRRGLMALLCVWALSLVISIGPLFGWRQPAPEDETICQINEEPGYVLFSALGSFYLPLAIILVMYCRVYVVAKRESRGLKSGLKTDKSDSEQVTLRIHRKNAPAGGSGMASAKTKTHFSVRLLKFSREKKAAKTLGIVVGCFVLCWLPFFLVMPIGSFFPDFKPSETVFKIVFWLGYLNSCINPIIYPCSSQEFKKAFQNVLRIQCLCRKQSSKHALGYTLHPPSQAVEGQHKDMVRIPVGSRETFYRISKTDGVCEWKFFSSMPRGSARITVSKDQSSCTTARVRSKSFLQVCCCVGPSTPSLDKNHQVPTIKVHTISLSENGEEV
Description: as §1
Assay [4] deals with T2, ADRA1A. The following applies: ADRA1A solubilized (CHAPS/CHS) from membranes of erg6 cells.
Description: as §1, §2
In assay [5] the target is T3, MTR1A (Homo sapiens, UniProt P48039).
T3 sequence (P48039 whole entry): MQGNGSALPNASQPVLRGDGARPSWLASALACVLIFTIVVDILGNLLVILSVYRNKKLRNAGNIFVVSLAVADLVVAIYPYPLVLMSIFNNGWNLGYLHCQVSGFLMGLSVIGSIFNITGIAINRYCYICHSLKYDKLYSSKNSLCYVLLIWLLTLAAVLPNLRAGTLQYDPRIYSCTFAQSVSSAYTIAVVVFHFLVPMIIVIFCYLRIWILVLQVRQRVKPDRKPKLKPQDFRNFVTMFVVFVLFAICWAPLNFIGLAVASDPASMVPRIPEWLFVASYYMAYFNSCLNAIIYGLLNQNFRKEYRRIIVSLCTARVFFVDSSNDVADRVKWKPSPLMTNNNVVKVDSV
Description: as §1
Assay [6] deals with T3, MTR1A. The source holds these as a separate data set.
Description: as §1, §2

Read-outs that look alike come from different tables or passages of the source.

T1 sequence (P14416 whole entry): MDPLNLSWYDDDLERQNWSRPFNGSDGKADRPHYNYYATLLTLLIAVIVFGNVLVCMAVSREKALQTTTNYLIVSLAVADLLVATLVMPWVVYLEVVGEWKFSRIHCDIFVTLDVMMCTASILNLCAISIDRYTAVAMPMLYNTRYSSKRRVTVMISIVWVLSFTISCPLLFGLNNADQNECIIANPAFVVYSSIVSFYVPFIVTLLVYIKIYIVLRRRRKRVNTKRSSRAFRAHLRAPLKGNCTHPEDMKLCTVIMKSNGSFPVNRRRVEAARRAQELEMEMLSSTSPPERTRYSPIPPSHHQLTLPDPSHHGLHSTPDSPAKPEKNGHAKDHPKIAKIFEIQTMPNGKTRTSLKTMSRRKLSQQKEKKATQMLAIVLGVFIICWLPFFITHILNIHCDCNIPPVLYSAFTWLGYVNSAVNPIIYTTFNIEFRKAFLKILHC

Consider `O=C(CCCN1CCC2(CC1)C(=O)NCN2c1ccccc1)c1ccc(F)cc1` [[3H]-Spiperone], for which the Bmax at DRD2 [1] came out at 42.79 ± 4.71 pmol/mg; at DRD2 [2], 62.20 ± 16.42 pmol/mg.

`COc1cc2nc(N3CCN(C(=O)c4ccco4)CC3)nc(N)c2cc1OC` [[3H]-Prazozine]: the Bmax at ADRA1A [3] (ADRA1A expressed in membranes of WT cells) is 15.72 ± 2.09 pmol/mg; at ADRA1A [3] (ADRA1A expressed in membranes of erg6 cells) it was 35.74 ± 1.11 pmol/mg; at ADRA1A [4] it was 11.34 ± 0.71 pmol/mg.

As to `COc1ccc2[nH]cc(CCNC(C)=O)c2c1` [[3H]-Melatonin], the Bmax worked out at 4.86 ± 0.38 pmol/mg at MTR1A [5] (MTR1A expressed in membranes of WT cells), 1.35 ± 0.30 pmol/mg on MTR1A [5] (MTR1A expressed in membranes of erg6 cells), 2.91 ± 0.29 pmol/mg on MTR1A [6] (MTR1A solubilized (CHAPS/CHS) from membranes of WT cells) and 5.13 ± 0.32 pmol/mg on MTR1A [6] (MTR1A solubilized (CHAPS/CHS) from membranes of erg6 cells).
